ChEMBL document CHEMBL1201862, “PubChem BioAssay data set” (2004)
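Test compounds were applied to cells in 96-well plates for 48 hours at 5 doses. GI50 marks 50% less growth.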 The source made the active and inactive calls. Rule as the data show it: active = GI50 up to about 1.1 µM and inactive = higher.

Tests used:
Assay in all cases: growth of human tumour cells (NCI), 48 h
[1] = test system: CCRF-CEM
[2] = test system: SK-MEL-28
[3] = test system: LOX IMVI
[4] = test system: SNB-75
[5] = test system: NCI-H226
[6] = test system: U-251
[7] = test system: MOLT-4
[8] = test system: IGROV-1
[9] = test system: NCI-H460
[10] = test system: UACC-62
[11] = test system: M19-MEL
[12] = test system: SK-MEL-5
[13] = test system: UO-31
[14] = test system: COLO 205
[15] = test system: HCC 2998
[16] = test system: HCT-116
[17] = test system: RXF 631
[18] = test system: 786-0
[19] = test system: CAKI-1
[20] = test system: HOP-18
[21] = test system: K562
[22] = test system: ACHN
[23] = test system: SNB-19
[24] = test system: KM12
[25] = test system: EKVX
[26] = test system: OVCAR-8
[27] = test system: NCI-H522
[28] = test system: SN12C
[29] = test system: SW-620
[30] = test system: OVCAR-3
[31] = test system: TK-10
[32] = test system: HCT-15
[33] = test system: LXFL 529
[34] = test system: Malme-3M
[35] = test system: SNB-78
[36] = test system: DLD-1
[37] = test system: M14
[38] = test system: A549
[39] = test system: A498
[40] = test system: SK-OV-3
[41] = test system: DMS-273
[42] = test system: SF-539
[43] = test system: HT-29
[44] = test system: HOP-92
[45] = test system: RPMI-8226
[46] = test system: DMS-114
[47] = test system: NCI-H23
[48] = test system: SF-295
[49] = test system: RXF 393
[50] = test system: UACC-257
[51] = test system: KM-20L2
[52] = test system: OVCAR-5
[53] = test system: XF498
[54] = test system: OVCAR-4
[55] = test system: SK-MEL-2
[56] = test system: SR
[57] = test system: HL-60
[58] = test system: HOP-62
[59] = test system: SF-268

Question: What does the source list for COC(=O)/C(C#N)=C1\NN=NN1CCCc1ccccc1?
Answer: GI50 [1]: > 100 µM (inactive); GI50 [2]: > 100 µM (inactive); GI50 [3]: > 100 µM (inactive); GI50 [4]: > 100 µM (inactive); GI50 [5]: > 100 µM (inactive); GI50 [6]: > 100 µM (inactive); GI50 [7]: > 100 µM (inactive); GI50 [8]: > 100 µM (inactive); GI50 [9]: > 100 µM (inactive); GI50 [10]: > 100 µM (inactive); GI50 [11]: > 100 µM (inactive); GI50 [12]: > 100 µM (inactive); GI50 [13]: 76.4 µM (inactive); GI50 [14]: > 100 µM (inactive); GI50 [15]: > 100 µM (inactive); GI50 [16]: > 100 µM (inactive); GI50 [17]: > 100 µM (inactive); GI50 [18]: > 100 µM (inactive); GI50 [19]: > 100 µM (inactive); GI50 [20]: 90.6 µM (inactive); GI50 [21]: > 100 µM (inactive); GI50 [22]: > 100 µM (inactive); GI50 [23]: > 100 µM (inactive); GI50 [24]: > 100 µM (inactive); GI50 [25]: > 100 µM (inactive); GI50 [26]: > 100 µM (inactive); GI50 [27]: 13.5 µM (inactive); GI50 [28]: > 100 µM (inactive); GI50 [29]: > 100 µM (inactive); GI50 [30]: > 100 µM (inactive); GI50 [31]: > 100 µM (inactive); GI50 [32]: > 100 µM; GI50 [33]: > 100 µM (inactive); GI50 [34]: > 100 µM (inactive); GI50 [35]: > 100 µM (inactive); GI50 [36]: > 100 µM (inactive); GI50 [37]: > 100 µM (inactive); GI50 [38]: > 100 µM (inactive); GI50 [39]: 84.3 µM (inactive); GI50 [40]: > 100 µM (inactive); GI50 [41]: > 100 µM (inactive); GI50 [42]: > 100 µM (inactive); GI50 [43]: > 100 µM (inactive); GI50 [44]: > 100 µM (inactive); GI50 [45]: > 100 µM (inactive); GI50 [46]: > 100 µM (inactive); GI50 [47]: > 100 µM (inactive); GI50 [48]: > 100 µM (inactive); GI50 [49]: > 100 µM (inactive); GI50 [50]: > 100 µM (inactive)

Question: How did the GI50 [1] turn out when CN(C)CCc1ccc(Cl)cc1Cl was run?
Answer: The GI50 was > 100 µM (inactive).

Question: What about the GI50 [2] of the same compound?
Answer: The GI50 was > 100 µM (inactive).

Question: What about the GI50 [3] of the same compound?
Answer: Its GI50 is > 100 µM (inactive).

Question: And the GI50 [4]?
Answer: Its GI50 is 28.3 µM (inactive).

Question: What about the GI50 [6] of the same compound?
Answer: The GI50 was > 100 µM (inactive).

Question: And the GI50 [7]?
Answer: The GI50 was > 100 µM (inactive).

Question: What about the GI50 [8] of the same compound?
Answer: Its GI50 is > 100 µM (inactive).

Question: What about the GI50 [51] of the same compound?
Answer: Its GI50 is > 100 µM (inactive).

Question: And the GI50 [9]?
Answer: Its GI50 is > 100 µM (inactive).

Question: And the GI50 [52]?
Answer: The GI50 was > 100 µM (inactive).

Question: And the GI50 [10]?
Answer: Its GI50 is > 100 µM (inactive).

Question: What about the GI50 [11] of the same compound?
Answer: The GI50 was > 100 µM (inactive).

Question: And the GI50 [12]?
Answer: The GI50 was > 100 µM (inactive).

Question: And the GI50 [13]?
Answer: The GI50 was > 100 µM (inactive).

Question: What about the GI50 [14] of the same compound?
Answer: Its GI50 is > 100 µM (inactive).

Question: And the GI50 [15]?
Answer: Its GI50 is > 100 µM (inactive).

Question: And the GI50 [16]?
Answer: The GI50 was > 100 µM (inactive).

Question: What about the GI50 [17] of the same compound?
Answer: Its GI50 is > 100 µM (inactive).

Question: And the GI50 [18]?
Answer: The GI50 was > 100 µM (inactive).

Question: And the GI50 [53]?
Answer: Its GI50 is > 100 µM (inactive).

Question: And the GI50 [19]?
Answer: Its GI50 is > 100 µM (inactive).

Question: What about the GI50 [20] of the same compound?
Answer: The GI50 was > 100 µM (inactive).

Question: And the GI50 [54]?
Answer: The GI50 was > 100 µM (inactive).

Question: And the GI50 [21]?
Answer: Its GI50 is > 100 µM (inactive).

Question: What about the GI50 [22] of the same compound?
Answer: Its GI50 is > 100 µM (inactive).

Question: What about the GI50 [23] of the same compound?
Answer: The GI50 was > 100 µM (inactive).

Question: And the GI50 [24]?
Answer: Its GI50 is > 100 µM (inactive).

Question: What about the GI50 [25] of the same compound?
Answer: Its GI50 is > 100 µM (inactive).

Question: And the GI50 [26]?
Answer: Its GI50 is > 100 µM (inactive).

Question: What about the GI50 [27] of the same compound?
Answer: Its GI50 is > 100 µM (inactive).

Question: And the GI50 [28]?
Answer: Its GI50 is > 100 µM (inactive).

Question: What about the GI50 [29] of the same compound?
Answer: The GI50 was > 100 µM (inactive).

Question: And the GI50 [55]?
Answer: Its GI50 is > 100 µM (inactive).

Question: What about the GI50 [31] of the same compound?
Answer: The GI50 was > 100 µM (inactive).

Question: And the GI50 [56]?
Answer: The GI50 was > 100 µM (inactive).

Question: And the GI50 [32]?
Answer: Its GI50 is > 100 µM.

Question: What about the GI50 [57] of the same compound?
Answer: Its GI50 is > 100 µM (inactive).

Question: What about the GI50 [33] of the same compound?
Answer: Its GI50 is > 100 µM (inactive).

Question: What about the GI50 [34] of the same compound?
Answer: Its GI50 is > 100 µM (inactive).

Question: And the GI50 [36]?
Answer: Its GI50 is > 100 µM (inactive).

Question: What about the GI50 [37] of the same compound?
Answer: Its GI50 is > 100 µM (inactive).

Question: And the GI50 [38]?
Answer: The GI50 was > 100 µM (inactive).

Question: And the GI50 [39]?
Answer: Its GI50 is > 100 µM (inactive).

Question: What about the GI50 [40] of the same compound?
Answer: The GI50 was > 100 µM (inactive).

Question: And the GI50 [42]?
Answer: The GI50 was > 100 µM (inactive).

Question: And the GI50 [43]?
Answer: Its GI50 is > 100 µM (inactive).

Question: And the GI50 [58]?
Answer: The GI50 was > 100 µM (inactive).

Question: What about the GI50 [44] of the same compound?
Answer: Its GI50 is 62.2 µM (inactive).

Question: And the GI50 [45]?
Answer: Its GI50 is > 100 µM (inactive).

Question: And the GI50 [46]?
Answer: The GI50 was > 100 µM (inactive).

Question: What about the GI50 [47] of the same compound?
Answer: The GI50 was > 100 µM (inactive).

Question: And the GI50 [48]?
Answer: Its GI50 is > 100 µM (inactive).

Question: And the GI50 [49]?
Answer: The GI50 was > 100 µM (inactive).

Question: And the GI50 [59]?
Answer: The GI50 was > 100 µM (inactive).

Question: What about the GI50 [50] of the same compound?
Answer: Its GI50 is > 100 µM (inactive).
